Measurements as given in patent US12338256B2, “Aza-tetracyclic oxazepine compounds and uses thereof” (Genentech, Inc., priority 2022, dated 2025).

What was measured:
Assay type in all cases: cell-based
[1] = test system: H1975 (KRAS wild type human lung adenocarcinoma cell line); assay: KRAS 3D-Cell Proliferation Assay, H1975 (Example 503); conditions: Homo sapiens, NCI-H1975, 168 h, H1975 3D culture, 7 days, CellTiter-Glo 3D; read-out: Prolif H1975 3D ATP IC50
Procedure, shortened: (§1)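 Luminescent ATP readout (CellTiter-Glo 3D, with mechanical mixing) measures growth of cells cultured in 3D after a 7-day compound exposure at 37° C. Percent inhibition is referenced to vehicle (DMSO) and 1 μM staurosporine controls, and IC50 comes from a four-parameter Hill fit.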

[2] = test system: AsPC-1 (homozygous mutant KRAS G12D human pancreatic cell line); assay: KRAS 3D-Cell Proliferation Assay, AsPC-1 (Example 503); conditions: Homo sapiens, ASPC1, 168 h, AsPC-1 3D culture, 7 days, CellTiter-Glo 3D; read-out: Prolif AsPC-1 3D ATP IC50
Experimental: Example 503: KRAS 3D-Cell Proliferation Assays. Cellular potencies of compounds are assessed by evaluating inhibition of proliferation in 3D cultures of homozygous mutant KRAS G12D human pancreatic cell lines (AsPC-1 and HPAC) as compared to a KRAS wild type human lung adenocarcinoma cell line (PC-9 and/or H1975). Cells are seeded into 384-well black round-bottom, ultra-low attachment assay plates in 50 uL cell growth medium (RPMI-1640 with 10% fetal bovine serum and 2 mM L-glutamine). After overnight incubation at 37° C. and 5% CO2, compounds solubilized in DMSO are added as dilution series to the wells in a total volume of 150 nL (0.3% DMSO final). The cells are incubated for 7 days at 37° C. and 5% CO2. Cell proliferation is quantitated by addition of 40 uL/well of CellTiter-GloÒ 3D (Promega), and the well contents are mixed 20× at high speed using liquid handling automation workstation (Bravo with 384-well head) and centrifuged at 1500 rpm for 2 minutes to eliminate bubbles. This reagent in combination with mechanical disruption releases the cellular ATP to promote activity in a luciferase-based enzyme/substrate chemiluminescent detection system. After a 30-minute incubation under ambient conditions with shaking and an additional 10 minutes without shaking, the luminescence is read on a plate reader (e.g., EnVision [PerkinElmer]). The results are normalized to percent inhibition based on the following control samples: DMSO (0% inhibition) and 1 μM staurosporine (100% inhibition). The normalized luminescence results are plotted against compound concentration, and the data are fit to a 4-parameter Hill equation to determine the IC50 values.

[3] = test system: HPAC (homozygous mutant KRAS G12D human pancreatic cell line); assay: KRAS 3D-Cell Proliferation Assay, HPAC (Example 503); conditions: Homo sapiens, HPAC, 168 h, HPAC 3D culture, 7 days, CellTiter-Glo 3D; read-out: Prolif HPAC 3D ATP IC50
Procedure, shortened: as §1

Row | Structure (SMILES) | IC50 [1] | IC50 [2] | IC50 [3]
1 | Cc1c(F)c(N)c(F)c(-c2nc3c4c(nc(OCC5(CN6CCOCC6)CC5)nc4c2F)N2C[C@H]4CC[C@H](N4)[C@H]2[C@H](C)O3)c1C(F)(F)F [Compound 224, 2,6-Difluoro-3-((5S,5aS,6S,9R)-1-fluoro-5-methyl-12-((1-(morpholinomethyl)cyclopropyl)methoxy)-5a,6,7,8,9,10-hexahydro-5H-4-oxa-3,10a,11,13,14-pentaaza-6,9-methanonaphtho[1,8-ab]heptalen-2-yl)-5-methyl-4-(trifluoromethyl)aniline] | 711 nM | 3.5 nM | 2.72 nM
2 | Cc1c(F)c(N)cc(-c2nc3c4c(nc(OCC5(CN6CCOC[C@H]6C)CC5)nc4c2F)N2C[C@H]4CC[C@H](N4)[C@H]2[C@H](C)O3)c1C(F)(F)F [Compound 129, 2-Fluoro-5-((5S,5aS,6S,9R)-1-fluoro-5-methyl-12-((1-(((R)-3-methylmorpholino)methyl)cyclopropyl)methoxy)-5a,6,7,8,9,10-hexahydro-5H-4-oxa-3,10a,11,13,14-pentaaza-6,9-methanonaphtho[1,8-ab]heptalen-2-yl)-3-methyl-4-(trifluoromethyl)aniline] | 1150 nM | 1 nM | 1.1 nM
3 | Cc1c(F)c(N)cc(-c2nc3c4c(nc(OC[C@@H]5CC[C@H]6COCCN65)nc4c2F)N2C[C@H]4CC[C@H](N4)[C@H]2[C@H](C(F)(F)F)O3)c1C(F)(F)F [Compound 245, 2-Fluoro-5-((5R,5aS,6S,9R)-1-fluoro-12-(((6S,8aS)-hexahydro-1H-pyrrolo[2,1-c][1,4]oxazin-6-yl)methoxy)-5-(trifluoromethyl)-5a,6,7,8,9,10-hexahydro-5H-4-oxa-3,10a,11,13,14-pentaaza-6,9-methanonaphtho[1,8-ab]heptalene-2-yl)-3-methyl-4-(trifluoromethyl)aniline] | 739 nM | 3.6 nM | 4.13 nM
4 | Cc1cc(N)c(F)c(-c2nc3c4c(nc(OC[C@@H]5CC[C@H]6COCCN65)nc4c2F)N2C[C@H]4CC[C@H](N4)[C@H]2[C@H](C)O3)c1C(F)(F)F [Compound 97, 2-Fluoro-3-((5S,5aS,6S,9R)-1-fluoro-12-(((6S,8aS)-hexahydro-1H-pyrrolo[2,1-c][1,4]oxazin-6-yl)methoxy)-5-methyl-5a,6,7,8,9,10-hexahydro-5H-4-oxa-3,10a,11,13,14-pentaaza-6,9-methanonaphtho[1,8-ab]heptalen-2-yl)-5-methyl-4-(trifluoromethyl)aniline] | 573 nM | 10.1 nM | 3.21 nM
5 | Cc1cc2[nH]ncc2c(-c2nc3c4c(nc(OC[C@@]56CCCN5C[C@H](F)C6)nc4c2F)N2C[C@H]4CC[C@H](N4)[C@H]2[C@H](C)O3)c1Cl [Compound 176, (5S,5aS,6S,9R)-2-(5-Chloro-6-methyl-1H-indazol-4-yl)-1-fluoro-12-(((2R,7aS)-2-fluorotetrahydro-1H-pyrrolizin-7a(5H)-yl)methoxy)-5-methyl-5a,6,7,8,9,10-hexahydro-5H-4-oxa-3,10a,11,13,14-pentaaza-6,9-methanonaphtho[1,8-ab]heptalene] | 15200 nM | 200 nM | 168 nM
6 | C[C@@H]1Oc2nc(-c3cc(N)cc(F)c3C(F)(F)F)c(F)c3nc(OC[C@@H]4CC[C@H]5COCCN54)nc(c23)N2C[C@H]3CC[C@H](N3)[C@@H]12 [Compound 77, 3-Fluoro-5-((5S,5aS,6S,9R)-1-fluoro-12-(((6S,8aS)-hexahydro-1H-pyrrolo[2,1-c][1,4]oxazin-6-yl)methoxy)-5-methyl-5a,6,7,8,9,10-hexahydro-5H-4-oxa-3,10a,11,13,14-pentaaza-6,9-methanonaphtho[1,8-ab]heptalen-2-yl)-4-(trifluoromethyl)aniline] | 358 nM | 11.9 nM | 2.79 nM
7 | Cc1c(F)c(N)cc(-c2nc3c4c(nc(OC[C@@]56CCCN5CC5(CC5(F)F)C6)nc4c2F)N2C[C@H]4CC[C@H](N4)[C@H]2[C@H](C)O3)c1C(F)(F)F (stereo partly drawn) [Compound 62, 5-((5S,5aS,6S,9R)-12-(((7a′S)-2,2-Difluorodihydro-1′H,3′H-spiro[cyclopropane-1,2′-pyrrolizin]-7a′(5′H)-yl)methoxy)-1-fluoro-5-methyl-5a,6,7,8,9,10-hexahydro-5H-4-oxa-3,10a,11,13,14-pentaaza[6,9]methanonaphtho[1,8-ab]heptalen-2-yl)-2-fluoro-3-methyl-4-(trifluoromethyl)aniline] | 111 nM | 0.3 nM | 0.261 nM
8 | C#Cc1cccc2cc(O)cc(-c3nc4c5c(nc(OC[C@@]67CCCN6C[C@H](F)C7)nc5c3F)N3C[C@H]5CC[C@H](N5)[C@H]3[C@H](C(F)(F)F)O4)c12 [Compound 251] | 234 nM | 1.9 nM | 2.3 nM
9 | Cc1nc(N)cc(-c2nc3c4c(nc(OC[C@@]56CCCN5CC5(CC5(F)F)C6)nc4c2F)N2C[C@H]4CC[C@H](N4)[C@H]2[C@H](C)O3)c1C(F)(F)F (stereo partly drawn) [Compound 216, 4-((5S,5aS,6S,9R)-12-(((7a′S)-2,2-Difluorodihydro-1′,3′H-spiro[cyclopropane-1,2′-pyrrolizin]-7a′(5′H)-yl)methoxy)-1-fluoro-5-methyl-5a,6,7,8,9,10-hexahydro-5H-4-oxa-3,10a,11,13,14-pentaaza[6,9]methanonaphtho[1,8-ab]heptalene-2-yl)-6-methyl-5-(trifluoromethyl)pyridin-2-amine] | 161 nM | 0.6 nM | 0.893 nM
10 | Cc1c(F)c(N)cc(-c2nc3c4c(nc(OC[C@@]56CCCN5C[C@H](F)C6)nc4c2F)N2C[C@H]4CC[C@H](N4)[C@@H]2[C@@H](C(F)(F)F)O3)c1C(F)(F)F [Compound 248, 2-Fluoro-5-((5S,5aR,6S,9R)-1-fluoro-12-(((2R,7aS)-2-fluorotetrahydro-1H-pyrrolizin-7a(5H)-yl)methoxy)-5-(trifluoromethyl)-5a,6,7,8,9,10-hexahydro-5H-4-oxa-3,10a,11,13,14-pentaaza-6,9-methanonaphtho[1,8-ab]heptalene-2-yl)-3-methyl-4-(trifluoromethyl)aniline] | 244 nM | 27.9 nM | 12.5 nM
11 | C[C@@H]1Oc2nc(-c3cc(N)c(F)c(F)c3CC(F)F)c(F)c3nc(OC[C@@]45CCCN4C[C@H](F)C5)nc(c23)N2C[C@H]3CC[C@H](N3)[C@@H]12 [Compound 190, 4-(2,2-Difluoroethyl)-2,3-difluoro-5-((5S,5aS,6S,9R)-1-fluoro-12-(((2R,7aS)-2-fluorotetrahydro-1H-pyrrolizin-7a(5H)-yl)methoxy)-5-methyl-5a,6,7,8,9,10-hexahydro-5H-4-oxa-3,10a,11,13,14-pentaaza-6,9-methanonaphtho[1,8-ab]heptalene-2-yl)aniline] | 1560 nM | 12.6 nM | 2.2 nM
12 | C[C@@H]1Oc2nc(-c3c(C(F)(F)F)cc(F)c(N)c3F)c(F)c3nc(OC[C@@]45CCCN4C[C@H](F)C5)nc(c23)N2C[C@H]3CC[C@H](N3)[C@@H]12 [Compound 90, 2,6-Difluoro-3-((5S,5aS,6S,9R)-1-fluoro-12-(((2R,7aS)-2-fluorotetrahydro-1H-pyrrolizin-7a(5H)-yl)methoxy)-5-methyl-5a,6,7,8,9,10-hexahydro-5H-4-oxa-3,10a,11,13,14-pentaaza-6,9-methanonaphtho[1,8-ab]heptalen-2-yl)-4-(trifluoromethyl)aniline] | 1140 nM | 18.9 nM | 7.3 nM
13 | Cc1c(F)c(N)cc(-c2nc3c4c(nc(OC[C@@]56CCCN5C/C(=C\F)C6)nc4c2F)N2C[C@H]4CC[C@H](N4)[C@H]2[C@H](C)O3)c1C(F)(F)F [Compound 64, 2-fluoro-5-((5S,5aS,6S,9R)-1-fluoro-12-(((S,Z)-2-(fluoromethylene)tetrahydro-1H-pyrrolizin-7a(5H)-yl)methoxy)-5-methyl-5a,6,7,8,9,10-hexahydro-5H-4-oxa-3,10a,11,13,14-pentaaza-6,9-methanonaphtho[1,8-ab]heptalen-2-yl)-3-methyl-4-(trifluoromethyl)aniline] | 235 nM | 0.9 nM | 0.46 nM
